Literature values, collected in patent EP1432446B1, “METHODS FOR THE IDENTIFICATION OF POLYPEPTIDE ANTIGENS ASSOCIATED WITH DISORDERS INVOLVING ABERRANT CELL PROLIFERATION” (Genentech, Inc., priority 2001, dated 2003).

## COc1cc2cc(c1Cl)N(C)C(=O)C[C@H](OC(=O)[C@H](C)N(C)C(C)=O)[C@]1(C)O[C@H]1[C@H](C)[C@@H]1C[C@@](O)(NC(=O)O1)[C@H](OC)/C=C/C=C(\C)C2 [maytansine, Maytansine]
Clinical trials discontinued
  adverse effects in clinical trials: serious adverse effects on the central nervous system and gastrointestinal system
In vivo
  associated toxicity: peripheral neuropathy
